Measured values reported in patent US11661431B2, “Thienopyrrole compounds” (Gilead Sciences, Inc., priority 2021, dated 2023).
pEC50: −log10 of the molar value.

Key:
TLR8 = TLR8 (Homo sapiens (Human), UniProt Q9NR97); test: TLR8 human peripheral blood mononuclear cell (PBMC) cell-based assay (Compound A as agonist; TNFα and IL12p40 readout); details: human PBMCs, TLR8 agonist Compound A at 800 nM, 6 hours, antagonist potency; read-out: TLR-8 EC50
TLR7 = TLR7 (Homo sapiens (Human), UniProt Q9NYK1); test: TLR7 human peripheral blood mononuclear cell (PBMC) cell-based assay (GS-986 as agonist; IL-6 and IFNα readout); details: human PBMCs, TLR7 agonist GS-986 at 400 nM, 6 hours, antagonist potency; read-out: TLR-7 EC50
Procedure, shortened: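 Human PBMCs (100,000 cells/well) preincubated 1 h at 37 °C with antagonist in 10-point dose response, then stimulated with TLR7 agonist for a further 6 h at 37 °C, 5% CO2. Supernatant IL-6 and IFNα measured by electrochemiluminescence immunoassay.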

Chain of TLR8 (Q9NR97 27-1041): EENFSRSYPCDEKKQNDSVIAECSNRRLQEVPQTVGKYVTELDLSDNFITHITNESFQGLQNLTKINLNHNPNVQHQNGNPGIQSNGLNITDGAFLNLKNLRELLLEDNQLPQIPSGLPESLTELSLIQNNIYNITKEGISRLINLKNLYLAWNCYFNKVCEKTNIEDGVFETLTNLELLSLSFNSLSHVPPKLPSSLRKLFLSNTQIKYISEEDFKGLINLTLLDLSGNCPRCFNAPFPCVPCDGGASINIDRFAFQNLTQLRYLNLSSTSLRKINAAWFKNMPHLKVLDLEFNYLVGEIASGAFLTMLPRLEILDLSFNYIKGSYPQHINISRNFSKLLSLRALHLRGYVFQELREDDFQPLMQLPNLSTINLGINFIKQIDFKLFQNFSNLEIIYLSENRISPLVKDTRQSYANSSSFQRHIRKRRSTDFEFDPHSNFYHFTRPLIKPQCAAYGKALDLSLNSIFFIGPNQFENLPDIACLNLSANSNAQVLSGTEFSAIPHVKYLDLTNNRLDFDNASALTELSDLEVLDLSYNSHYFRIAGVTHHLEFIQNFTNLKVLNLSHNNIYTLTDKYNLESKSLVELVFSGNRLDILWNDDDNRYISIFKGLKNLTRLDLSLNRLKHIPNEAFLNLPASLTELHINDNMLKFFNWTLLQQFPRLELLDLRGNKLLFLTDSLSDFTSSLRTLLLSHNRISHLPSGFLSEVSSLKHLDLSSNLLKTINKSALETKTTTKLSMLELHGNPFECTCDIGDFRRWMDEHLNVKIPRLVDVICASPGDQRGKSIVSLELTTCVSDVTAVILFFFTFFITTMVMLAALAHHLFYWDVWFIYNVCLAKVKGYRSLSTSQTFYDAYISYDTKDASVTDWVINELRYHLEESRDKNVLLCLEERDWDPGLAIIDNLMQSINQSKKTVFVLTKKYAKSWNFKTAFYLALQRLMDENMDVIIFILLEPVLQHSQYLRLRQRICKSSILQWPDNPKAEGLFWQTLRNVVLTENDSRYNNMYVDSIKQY
Chain of TLR7 (Q9NYK1 27-1049): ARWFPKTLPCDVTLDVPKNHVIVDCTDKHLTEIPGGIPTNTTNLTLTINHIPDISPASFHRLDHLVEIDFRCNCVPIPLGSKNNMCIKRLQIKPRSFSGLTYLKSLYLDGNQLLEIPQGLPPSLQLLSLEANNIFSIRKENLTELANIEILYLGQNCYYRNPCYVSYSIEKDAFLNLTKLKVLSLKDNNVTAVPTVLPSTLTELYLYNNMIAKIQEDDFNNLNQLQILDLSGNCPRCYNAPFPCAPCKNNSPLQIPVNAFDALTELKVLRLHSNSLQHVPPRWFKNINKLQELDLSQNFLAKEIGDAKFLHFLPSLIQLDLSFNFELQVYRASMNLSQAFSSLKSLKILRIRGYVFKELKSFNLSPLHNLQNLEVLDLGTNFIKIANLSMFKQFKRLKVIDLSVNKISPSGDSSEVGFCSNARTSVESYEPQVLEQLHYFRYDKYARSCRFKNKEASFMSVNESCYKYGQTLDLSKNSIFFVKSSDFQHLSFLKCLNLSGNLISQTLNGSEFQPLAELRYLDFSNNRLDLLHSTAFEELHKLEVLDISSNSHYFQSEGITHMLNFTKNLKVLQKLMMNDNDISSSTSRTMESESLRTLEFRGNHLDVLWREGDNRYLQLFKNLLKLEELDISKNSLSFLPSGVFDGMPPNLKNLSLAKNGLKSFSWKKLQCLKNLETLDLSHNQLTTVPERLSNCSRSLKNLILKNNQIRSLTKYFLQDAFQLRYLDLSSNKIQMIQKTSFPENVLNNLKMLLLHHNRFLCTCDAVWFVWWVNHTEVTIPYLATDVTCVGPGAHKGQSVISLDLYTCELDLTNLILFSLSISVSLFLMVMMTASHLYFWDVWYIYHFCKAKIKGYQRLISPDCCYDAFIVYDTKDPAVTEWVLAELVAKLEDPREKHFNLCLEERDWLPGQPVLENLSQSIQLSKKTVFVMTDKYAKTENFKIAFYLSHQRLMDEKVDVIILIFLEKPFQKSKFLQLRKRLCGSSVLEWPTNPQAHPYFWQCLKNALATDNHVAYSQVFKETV

pEC50 (TLR8)	pEC50 (TLR7)	SMILES
8.31	10.10	Cc1c(C2CCNCC2)sc2[nH]c(-c3cc(C)c4ncnn4c3)c(C(C)C)c12 [Example 8, 4-Isopropyl-3-methyl-5-(8-methyl-[1,2,4]triazolo[1,5-a]pyridin-6-yl)-2-(piperidin-4-yl)-6H-thieno[2,3-b]pyrrole]
8.79	9.17	Cc1cc(-c2[nH]c3sc(C4CCN(CC(N)=O)CC4)cc3c2C(C)C)cn2ncnc12 [Example 26]
9.10	9.77	Cc1c(CC2CCNCC2)sc2[nH]c(-c3cc(C)c4ncnn4c3)c(C(C)C)c12 [Example 278]
7.78	9.64	Cc1c(C2CCN(C(=O)C34COC(CN3)C4)CC2)sc2[nH]c(-c3cc(C)c4ncnn4c3)c(C(C)C)c12 (stereo not drawn) [Example 55]
7.72	9.49	Cc1c(C2CCN(C(=O)[C@H]3C[C@H](F)CN3)CC2)sc2[nH]c(-c3cc(C)c4ncnn4c3)c(C(C)C)c12 [Example 43]
6.97	7.94	Cc1c(C2CCNCC2)sc2[nH]c(-c3ccc(C#N)c4nccnc34)c(C(C)C)c12 [Example 248]
8.56	> 10.30	Cc1c(-c2[nH]c3sc(C4CCC(N5CC[C@@H](F)C5)CC4)c(C)c3c2C(C)C)cn2ncnc2c1C (stereo partly drawn) [Example 303]
7.65	8.56	Cc1c(-c2[nH]c3sc(C4CCN(C5CCN(C)C5=O)CC4)c(C)c3c2C(C)C)cn2ncnc2c1C (stereo not drawn) [Example 288]
8.01	9.27	Cc1c(-c2[nH]c3sc(-c4ccc(C5CCN(CC(N)=O)CC5)cc4)c(C)c3c2C(C)C)cn2ncnc2c1C [Example 113]
7.56	9.41	Cc1c(C2CCN(C(=O)C3(N4CCOCC4)CC3)CC2)sc2[nH]c(-c3cc(C)c4ncnn4c3)c(C(C)C)c12 [Example 116]
8.18	9.35	Cc1c(-c2[nH]c3sc(-c4ccc(C5CCNCC5)cc4)c(C)c3c2C(C)C)cn2ncnc2c1C [Example 111]
9.49	10.15	CNS(=O)(=O)CCN1C[C@@H]2C[C@H]1C[C@H]2c1sc2[nH]c(-c3cn4ncnc4c(C)c3C)c(C(C)C)c2c1C [Example 182]
8.09	9.85	Cc1c(-c2[nH]c3sc(C4CCC(C(=O)N5CCNCC5)CC4)c(C)c3c2C(C)C)cn2ncnc2c1C (stereo not drawn) [Example 309, (4-(5-(7,8-dimethyl-[1,2,4]triazolo[1,5-a]pyridin-6-yl)-4-isopropyl-3-methyl-6H-thieno[2,3-b]pyrrol-2-yl)cyclohexyl)(piperazin-1-yl)methanone]
9.35	10.05	Cc1c(-c2[nH]c3sc([C@@H]4C[C@@H]5C[C@H]4CN5C4COC4)c(C)c3c2C(C)C)cn2ncnc2c1C [Example 167]
8.00	9.57	Cc1cc(-c2[nH]c3sc(C(=O)N(C)[C@H]4CCNC4)cc3c2C(C)C)cn2ncnc12 [Example 3]
8.62	9.57	Cc1c(C2CC3(C2)CN(C(=O)[C@H]2COCCN2)C3)sc2[nH]c(-c3cc(C)c4ncnn4c3)c(C(C)C)c12 [Example 53]
7.68	9.27	Cc1c(C2CCN(C(=O)[C@@H]3COCCN3)CC2)sc2[nH]c(-c3cc(C)c4ncnn4c3)c(C(C)C)c12 [Example 36]
7.71	8.97	CNC(=O)CN1CCC(c2sc3[nH]c(-c4cc(C)c5ncnn5c4)c(C(C)C)c3c2C)CC1 [Example 28]
8.53	8.59	Cc1c(C2C3CN(CC(N)=O)CC32)sc2[nH]c(-c3cc(C)c4ncnn4c3)c(C(C)C)c12 (stereo not drawn) [Example 202]
9.24	8.72	Cc1c(-c2[nH]c3sc([C@@H]4C[C@@H]5C[C@H]4CN5CC(=O)NC(C)C)c(C)c3c2C(C)C)cn2ncnc2c1C [Example 185]
8.35	10.22	Cc1c(C2CCN(C(=O)CN3CCCC3)CC2)sc2[nH]c(-c3cc(C)c4ncnn4c3)c(C(C)C)c12 [Example 34]
